Where “and” joins values, the source holds several entries; their conditions need not be identical. Equal values may be shown once. Inconclusive results and toxic doses are left out.
System: L1210 leukemia ip in BDF1 mice, survival T/C
Test: NCI In Vivo Anticancer Drug Screen. Data for tumor model L1210 Leukemia (intraperitoneal) in B6D2F1 (BDF1) mice
Details: endpoint: mean survival time, higher = longer survival
Procedure, shortened: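 Each compound was tested against a transplantable tumor grown in mice. The endpoint was survival, with treated animals benchmarked against vehicle controls as a simple ratio.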

[1] = dose: 100.0 mg/kg/injection, schedule: Q01DX009 (ip), vehicle: saline with Tween-80
[2] = dose: 200.0 mg/kg/injection, schedule: Q01DX009 (ip), vehicle: saline with Tween-80
[3] = dose: 400.0 mg/kg/injection, schedule: Q01DX009 (ip), vehicle: saline with Tween-80
[4] = dose: 100.0 mg/kg/injection, schedule: Q01DX001 (ip), vehicle: saline with Tween-80
[5] = dose: 100.0 mg/kg/injection, schedule: Q04DX002 (ip), vehicle: saline with Tween-80
[6] = dose: 100.0 mg/kg/injection, schedule: Q04DX003 (ip), vehicle: saline with Tween-80
[7] = dose: 200.0 mg/kg/injection, schedule: Q01DX001 (ip), vehicle: saline with Tween-80
[8] = dose: 200.0 mg/kg/injection, schedule: Q04DX002 (ip), vehicle: saline with Tween-80
[9] = dose: 200.0 mg/kg/injection, schedule: Q04DX003 (ip), vehicle: saline with Tween-80
[10] = dose: 400.0 mg/kg/injection, schedule: Q01DX001 (ip), vehicle: saline with Tween-80
[11] = dose: 400.0 mg/kg/injection, schedule: Q04DX002 (ip), vehicle: saline with Tween-80
[12] = dose: 400.0 mg/kg/injection, schedule: Q04DX003 (ip), vehicle: saline with Tween-80
[13] = dose: 100.0 mg/kg/injection, schedule: Q04DX003 (ip), vehicle: Klucel (hydroxypropylcellulose) (HPC)
[14] = dose: 200.0 mg/kg/injection, schedule: Q04DX003 (ip), vehicle: Klucel (hydroxypropylcellulose) (HPC)
[15] = dose: 400.0 mg/kg/injection, schedule: Q04DX003 (ip), vehicle: Klucel (hydroxypropylcellulose) (HPC)
[16] = dose: 50.0 mg/kg/injection, schedule: Q01DX009 (ip), vehicle: Klucel (hydroxypropylcellulose) (HPC)
[17] = dose: 100.0 mg/kg/injection, schedule: Q01DX009 (ip), vehicle: Klucel (hydroxypropylcellulose) (HPC)
[18] = dose: 200.0 mg/kg/injection, schedule: Q01DX009 (ip), vehicle: Klucel (hydroxypropylcellulose) (HPC)
[19] = dose: 400.0 mg/kg/injection, schedule: Q01DX009 (ip), vehicle: Klucel (hydroxypropylcellulose) (HPC)
[20] = dose: 25.0 mg/kg/injection, schedule: Q04DX003 (ip), vehicle: saline with Tween-80
[21] = dose: 50.0 mg/kg/injection, schedule: Q04DX003 (ip), vehicle: saline with Tween-80

In the case of `CN(C)S(=O)(=O)c1ccc(NC(=O)C(Cl)Cl)cc1`, the T/C (dose: 100.0 mg/kg/injection, schedule: Q01DX001 (ip), vehicle: other) is reported as 100 % of control, the T/C [1] is reported as 100 % of control and the T/C (dose: 100.0 mg/kg/injection, schedule: Q04DX003 (ip), vehicle: other) is reported as 103 % of control. The T/C (dose: 200.0 mg/kg/injection, schedule: Q01DX001 (ip), vehicle: other) was 107 % of control, the T/C [2] was 100 % of control and the T/C (dose: 200.0 mg/kg/injection, schedule: Q04DX003 (ip), vehicle: other) was 101 % of control. The T/C (dose: 400.0 mg/kg/injection, schedule: Q01DX001 (ip), vehicle: other) was 100 % of control, the T/C [3] was 86 % of control and the T/C (dose: 400.0 mg/kg/injection, schedule: Q04DX003 (ip), vehicle: other) was 101 % of control.

For `COc1ccc(NC(=O)Nc2cccc(Cl)c2C)c(OC)c1`, the T/C [4] was 98 % of control, the T/C [1] was 93 % of control and 89 % of control and the T/C [5] was 93 % of control and 92 % of control. The T/C [6] was 86 % of control, the T/C [7] was 102 % of control and the T/C [2] was 94 % of control and 86 % of control. The T/C [8] was 104 % of control and 90 % of control, the T/C [9] was 86 % of control and the T/C [10] was 100 % of control. For the same compound, the T/C [3] was 97 % of control and 110 % of control, the T/C [11] was 90 % of control and the T/C [12] was 91 % of control.

For `O=C(CC(c1ccccc1)c1ccccc1)NS(=O)(=O)c1ccccc1`, the T/C [13] was 94 % of control, the T/C [14] was 97 % of control and the T/C [15] was 97 % of control.

For `COc1cc(C)c(C2NC(=O)c3ccccc3N2)cc1C` (stereo not drawn), the T/C [16] was 95 % of control, the T/C [17] was 104 % of control and 109 % of control and the T/C [13] was 97 % of control. The T/C (dose: 150.0 mg/kg/injection, schedule: Q01DX009 (ip), vehicle: Klucel (hydroxypropylcellulose) (HPC)) was 109 % of control, the T/C [18] was 100 % of control and the T/C [14] was 97 % of control. The T/C [19] was 107 % of control and the T/C [15] was 103 % of control.

In the case of `COC(=O)N1C(c2ccccc2)(c2ccccc2)CS1(=O)=O`, the T/C (dose: 100.0 mg/kg/injection, schedule: Q04DX002 (ip), vehicle: Klucel (hydroxypropylcellulose) (HPC)) is reported as 112 % of control, the T/C (dose: 200.0 mg/kg/injection, schedule: Q04DX002 (ip), vehicle: Klucel (hydroxypropylcellulose) (HPC)) is reported as 104 % of control and the T/C (dose: 400.0 mg/kg/injection, schedule: Q04DX002 (ip), vehicle: Klucel (hydroxypropylcellulose) (HPC)) is reported as 93 % of control.

In the case of `CN(C)CCN=Cc1[nH]c(=S)[nH]c(=O)c1Cc1ccc(Cl)cc1`, the T/C [13] is reported as 101 % of control, the T/C [14] is reported as 94 % of control and the T/C [15] is reported as 95 % of control.

`CC(=O)c1c(O)cc(O)cc1O` was tested, and the T/C [1] was 96 % of control, the T/C [2] was 91 % of control and the T/C [3] was 98 % of control.

For `ClP1(c2ccccc2)=NP(Cl)(c2ccccc2)=NP(Cl)(c2ccccc2)=NP(Cl)(c2ccccc2)=N1` (stereo not drawn), the T/C (dose: 50.0 mg/kg/injection, schedule: Q01DX009 (ip), vehicle: saline with Tween-80) was 97 % of control and the T/C [1] was 89 % of control.

`COc1ccc([N+](=O)[O-])cc1NC(=O)Nc1ccccc1C(F)(F)F` was tested, and the T/C [17] was 88 % of control and 92 % of control, the T/C [18] was 92 % of control and the T/C [19] was 92 % of control.

For `CCC[As](=O)(O)CC[As](=O)(O)CCC`, the T/C [4] was 104 % of control, the T/C [7] was 112 % of control and the T/C [10] was 96 % of control.

In the case of `OCc1ccccc1`, the T/C [1] is reported as 105 % of control, the T/C [13] is reported as 100 % of control and the T/C [2] is reported as 102 % of control. For the same compound, the T/C [14] was 101 % of control, the T/C [3] was 96 % of control and the T/C [15] was 98 % of control.

In the case of `CS(=O)(=O)OCCN(CCOS(C)(=O)=O)c1ccc(C=Nc2ccc(-c3csc(Cc4ccccc4)n3)cc2)cc1`, the T/C (dose: 20.0 mg/kg/injection, schedule: Q04DX003 (ip), vehicle: Klucel (hydroxypropylcellulose) (HPC)) is reported as 122 % of control, the T/C (dose: 30.0 mg/kg/injection, schedule: Q04DX003 (ip), vehicle: Klucel (hydroxypropylcellulose) (HPC)) is reported as 98 % of control and the T/C (dose: 66.0 mg/kg/injection, schedule: Q04DX003 (ip), vehicle: Klucel (hydroxypropylcellulose) (HPC)) is reported as 152 % of control. For the same compound, the T/C (dose: 150.0 mg/kg/injection, schedule: Q04DX003 (ip), vehicle: Klucel (hydroxypropylcellulose) (HPC)) was 107 % of control.

In the case of `Brc1cccc[n+]1-c1ccc2cc(-[n+]3ccccc3Br)ccc2c1`, the T/C (dose: 9.38 mg/kg/injection, schedule: Q01DX001 (ip), vehicle: other) is reported as 100 % of control.

In the case of `O=C1CN(O)C(c2ccccc2)=c2cc(Cl)ccc2=N1`, the T/C (dose: 25.0 mg/kg/injection, schedule: Q01DX009 (ip), vehicle: Klucel (hydroxypropylcellulose) (HPC)) is reported as 100 % of control, the T/C (dose: 25.0 mg/kg/injection, schedule: Q04DX003 (ip), vehicle: Klucel (hydroxypropylcellulose) (HPC)) is reported as 98 % of control and the T/C [16] is reported as 101 % of control. The T/C (dose: 50.0 mg/kg/injection, schedule: Q04DX003 (ip), vehicle: Klucel (hydroxypropylcellulose) (HPC)) was 108 % of control, the T/C [17] was 95 % of control and the T/C [13] was 90 % of control. The T/C [18] was 92 % of control, the T/C [14] was 93 % of control and the T/C [19] was 108 % of control. The T/C [15] was 98 % of control.

For `CCOC(=O)c1c(Cl)cc(C)nc1C`, the T/C [6] was 93 % of control, the T/C [9] was 101 % of control and the T/C [12] was 95 % of control.

`COC(=O)c1ccc(OC(=O)Nc2cc(Cl)ccc2C)cc1` was tested, and the T/C [1] was 106 % of control and the T/C [2] was 89 % of control.

For `CC1CCC(C)C1NC1=NCCO1` (stereo not drawn), the T/C (dose: 6.25 mg/kg/injection, schedule: Q01DX009 (ip), vehicle: saline with Tween-80) was 90 % of control, the T/C (dose: 12.5 mg/kg/injection, schedule: Q01DX009 (ip), vehicle: saline with Tween-80) was 95 % of control and the T/C (dose: 25.0 mg/kg/injection, schedule: Q01DX009 (ip), vehicle: saline with Tween-80) was 90 % of control. The T/C [20] was 93 % of control, the T/C [21] was 93 % of control and the T/C [6] was 87 % of control.

`CCOC(=O)C(OCc1ccccc1)(C(=O)O)C(C)C` (stereo not drawn) was tested, and the T/C [20] was 93 % of control, the T/C [21] was 97 % of control and the T/C [6] was 98 % of control. For the same compound, the T/C [9] was 103 % of control.

In the case of `O=C=Nc1ccc(CCc2ccc(N=C=O)cc2)cc1`, the T/C (dose: 100.0 mg/kg/injection, schedule: Q01DX009 (ip), vehicle: saline) is reported as 88 % of control, the T/C (dose: 100.0 mg/kg/injection, schedule: Q04DX003 (ip), vehicle: saline) is reported as 93 % of control and the T/C (dose: 200.0 mg/kg/injection, schedule: Q01DX009 (ip), vehicle: saline) is reported as 87 % of control. The T/C (dose: 200.0 mg/kg/injection, schedule: Q04DX003 (ip), vehicle: saline) was 102 % of control and the T/C (dose: 400.0 mg/kg/injection, schedule: Q04DX003 (ip), vehicle: saline) was 106 % of control.

For `CNC/C(Cl)=N/S(=O)(=O)c1ccc(C)cc1`, the T/C (dose: 12.5 mg/kg/injection, schedule: Q04DX002 (ip), vehicle: other) was 106 % of control, the T/C (dose: 25.0 mg/kg/injection, schedule: Q04DX002 (ip), vehicle: other) was 98 % of control and the T/C (dose: 50.0 mg/kg/injection, schedule: Q04DX002 (ip), vehicle: other) was 95 % of control. For the same compound, the T/C (dose: 50.0 mg/kg/injection, schedule: Q04DX002 (ip), vehicle: saline with Tween-80) was 96 % of control, the T/C [5] was 99 % of control and the T/C [8] was 96 % of control. The T/C [11] was 108 % of control.

`O=C(O)C1C2CC=CCC21` (stereo not drawn) was tested, and the T/C (dose: 25.0 mg/kg/injection, schedule: Q01DX001 (ip), vehicle: Klucel (hydroxypropylcellulose) (HPC)) was 102 % of control, the T/C (dose: 50.0 mg/kg/injection, schedule: Q01DX001 (ip), vehicle: Klucel (hydroxypropylcellulose) (HPC)) was 101 % of control and the T/C (dose: 100.0 mg/kg/injection, schedule: Q01DX001 (ip), vehicle: Klucel (hydroxypropylcellulose) (HPC)) was 93 % of control and 94 % of control. The T/C [13] was 101 % of control, the T/C (dose: 200.0 mg/kg/injection, schedule: Q01DX001 (ip), vehicle: Klucel (hydroxypropylcellulose) (HPC)) was 93 % of control and the T/C [14] was 98 % of control. For the same compound, the T/C (dose: 400.0 mg/kg/injection, schedule: Q01DX001 (ip), vehicle: Klucel (hydroxypropylcellulose) (HPC)) was 97 % of control and the T/C [15] was 102 % of control.

For `COc1ccccc1NC(=O)NCCO`, the T/C (dose: 100.0 mg/kg/injection, schedule: Q01DX001 (ip), vehicle: carboxymethylcellulose (CMC)) was 103 % of control, the T/C (dose: 200.0 mg/kg/injection, schedule: Q01DX001 (ip), vehicle: carboxymethylcellulose (CMC)) was 95 % of control and the T/C (dose: 400.0 mg/kg/injection, schedule: Q01DX001 (ip), vehicle: carboxymethylcellulose (CMC)) was 103 % of control.
